Laboratory results from patent EP4624466A1, “DEGRADER FOR DECOMPOSING CMET PROTEIN, AND PHARMACEUTICAL COMPOSITION COMPRISING SAME” (Innocure Therapeutics, Inc., priority 2022, dated 2024).
Like-named read-outs stand apart in the source and are kept apart here.

Columns and labels:
[1] = tested on: SNU-638; experiment: Cell viability / antiproliferative assay (WST-8), SNU-638; assay type: cell-based, human; settings: read-out: SNU-638 IC50
Method: (§2) c-MET overexpressing human gastric cancer cell lines [MKN45] and [SNU638] were cultured in RPMI medium with 10% fetal bovine serum, penicillin (100U/ml), and streptomycin (100mg/ml), and c-MET exon 14 skipping mutant human gastric cancer cell lines [Hs746T] were cultured in DMEM media. The c-MET overexpressing human lung cancer cell line EBC-1 was cultured in MEM media with the addition of 10% fetal bovine serum, penicillin (100U/ml), and streptomycin (100mg/ml). […] The compound synthesized in accordance with the present invention was prepared with a raw material solution of 10 mM dissolved in DMSO (dimethyl sulfoxide), and was sequentially diluted and processed.
(§3) In order to observe the inhibitory activity on cell growth, cells were dispensed in a 96-well plate at a concentration of 5,000 cells/well, and then treated with the compound prepared at various concentrations for 72 hours. The viability of the cells was calculated using GraphicPad Prism 8.0 software by adding 10 ml per well of WST-8 (water soluble tetrazolium salt) sample, which reacts with dehydrogenase present in the electron transport system of mitochondria to produce formazon, incubated for 2 hours, and measured absorbance at 450 nm.

[2] = tested on: MKN-45; experiment: Cell viability / antiproliferative assay (WST-8), MKN-45; settings: for IC50: read-out: MKN-45 IC50;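 on all read-outs here: MKN-45 is a human gastric cancer line overexpressing c-MET, growth inhibition read as WST-8 formazan absorbance at 450 nm after 2 h dye incubation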
Method: as §2, §3

[3] = target: T1, c-MET (Homo sapiens, UniProt P08581); experiment: c-MET protein degradation (Simple Western), MKN-45; assay type: cell-based; set-up: assess the resolution of the compound of the present invention for c-MET expressed in cells; endogenous in cells; host or cells: MKN45 (human gastric cancer); settings: c-MET overexpressing gastric cancer cell line MKN-45, treated 24 hours
T1 sequence (P08581 25-1390): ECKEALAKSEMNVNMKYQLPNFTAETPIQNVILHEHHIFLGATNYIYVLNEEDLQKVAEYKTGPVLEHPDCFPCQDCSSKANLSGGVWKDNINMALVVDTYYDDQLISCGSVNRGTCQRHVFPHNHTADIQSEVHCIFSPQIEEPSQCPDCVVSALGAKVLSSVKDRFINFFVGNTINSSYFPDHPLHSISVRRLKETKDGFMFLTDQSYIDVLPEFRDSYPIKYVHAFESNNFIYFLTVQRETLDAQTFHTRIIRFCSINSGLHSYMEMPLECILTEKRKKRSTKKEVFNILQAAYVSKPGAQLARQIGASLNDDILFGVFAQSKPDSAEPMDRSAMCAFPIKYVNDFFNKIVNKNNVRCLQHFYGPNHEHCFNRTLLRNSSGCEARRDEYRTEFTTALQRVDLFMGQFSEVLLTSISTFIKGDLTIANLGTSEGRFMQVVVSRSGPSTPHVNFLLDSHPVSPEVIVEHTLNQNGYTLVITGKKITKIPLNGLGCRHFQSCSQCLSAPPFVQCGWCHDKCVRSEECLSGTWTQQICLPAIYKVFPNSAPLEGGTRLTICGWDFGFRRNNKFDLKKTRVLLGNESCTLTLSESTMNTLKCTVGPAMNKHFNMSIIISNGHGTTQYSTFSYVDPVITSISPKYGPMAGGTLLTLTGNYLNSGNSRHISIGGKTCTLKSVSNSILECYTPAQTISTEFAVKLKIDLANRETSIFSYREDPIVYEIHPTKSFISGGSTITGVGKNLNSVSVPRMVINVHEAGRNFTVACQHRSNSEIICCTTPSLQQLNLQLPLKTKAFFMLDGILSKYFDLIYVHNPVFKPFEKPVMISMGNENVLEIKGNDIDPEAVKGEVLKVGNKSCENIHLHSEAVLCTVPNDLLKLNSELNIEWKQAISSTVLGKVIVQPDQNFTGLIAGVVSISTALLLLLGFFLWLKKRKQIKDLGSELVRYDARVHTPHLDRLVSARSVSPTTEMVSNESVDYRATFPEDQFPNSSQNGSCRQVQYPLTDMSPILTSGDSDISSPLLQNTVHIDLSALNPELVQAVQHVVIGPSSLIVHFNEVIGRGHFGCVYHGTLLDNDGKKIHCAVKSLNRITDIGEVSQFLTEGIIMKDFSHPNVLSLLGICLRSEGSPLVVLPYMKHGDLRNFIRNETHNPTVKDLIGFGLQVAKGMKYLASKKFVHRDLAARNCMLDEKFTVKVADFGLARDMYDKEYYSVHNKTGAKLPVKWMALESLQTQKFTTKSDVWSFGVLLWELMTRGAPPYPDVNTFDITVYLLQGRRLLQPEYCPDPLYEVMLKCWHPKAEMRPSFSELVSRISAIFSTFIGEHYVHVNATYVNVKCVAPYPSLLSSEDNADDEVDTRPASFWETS
Method: (§1) In order to assess the resolution of the compound of the present invention for c-MET expressed in cells, cells were dispensed in a 12-well plate at a concentration of 2 × 10^5 cells/well, and then gastric cancer cell lines were treated with samples for 24 hours and lung cancer cell lines were treated for 48 hours. Cell lysates were collected using a scraper on ice, centrifuged at 4°C15,000 rpm for 30 min to obtain a protein-containing supernatant. Protein expression was then measured using the Simple Western Automated Western Blot System Abby instrument using 3 µg of protein for each sample. SDS and heat-induced denaturation proteins were separated by molecular weight, attached to capillary, reacted with anti-c-MET or anti-GAPDH antibodies, which are primary antibodies, and then reacted with HRP-conjugated secondary antibodies, and analyzed the protein expression signal with compass software. Protein expression was normalized based on the expression value of GAPDH, and protein development in each sample was measured as a percentage (%) based on 100% of samples treated with 0.1% DMSO carriers, and DC50 (concentration of a compound where 50% protein inhibition is achieved) was calculated from the change in protein expression amount due to compound treatment.

[4] = target: T1, c-MET; experiment: c-MET protein degradation (Simple Western), SNU-638; assay type: cell-based; set-up: assess the resolution of the compound of the present invention for c-MET expressed in cells; endogenous in cells; host or cells: SNU638 (human gastric cancer); settings: c-MET overexpressing gastric cancer cell line SNU-638, treated 24 hours; Table 2
Method: as §1

[5] = MKN-45 cells, 72 hours, WST-8, Table 2
[6] = SNU-638 cells, 72 hours, WST-8, Table 2

Row | SMILES | IC50 ([2]; Homo sapiens, MKN-45, 72 h) [nM] | DC50 ([3]; Table 2) [nM] | other results
1 | Cn1cc(-c2cnc3c(nnn3C[C@@H]3CN(c4ncc(-c5ccc(CN6CCN(C(=O)CCCNc7ccc8c(=O)n(C9CCC(=O)NC9=O)ncc8c7)CC6)cc5)cn4)CCO3)n2)cn1 (stereo partly drawn) [ICT-0000922, 3-{6-[(4-{4-[(4-{2-[(2S)-2-{[5-(1-methyl-1H-pyrazole-4-yl)-1H-[1,2,3]triazolo[4,5-b]pyrazine-1-yl]methyl}morpholine-4-il]pyrimidine-5-yl}phenyl)methyl]piperazine-1-yl}-4-oxobutyl)amino]-1-oxo-1,2-dihydroptalazine-2-yl}piperidine-2,6-dione] | < 100 | – | IC50 ([1]; Homo sapiens, SNU-638, 72 h): < 100 nM; DC50 ([3]; Table 1): < 100 nM
2 | Cn1cc(-c2cnc3c(nnn3C[C@@H]3CN(c4ncc(-c5ccc(CN6CCN(C(=O)CCCCCNc7ccc8c(=O)n(C9CCC(=O)NC9=O)ncc8c7)CC6)cc5)cn4)CCO3)n2)cn1 (stereo partly drawn) [ICT-0000923, 3-{6-[(6-{4-[(4-{2-[(2S)-2-{[5-(1-methyl-1H-pyrazole-4-yl)-1H-[1,2,3]triazolo[4,5-b]pyrazine-1-yl]methyl}morpholine-4-day]pyrimidine-5-yl}phenyl)methyl]piperazine-1-yl}-6-oxohexyl)amino]-1-oxo-1,2-dihydrophthalazine-2-yl}piperidine-2,6-dione] | < 100 | – | IC50 ([1]; Homo sapiens, SNU-638, 72 h): < 100 nM; DC50 ([3]; Table 1): < 100 nM
3 | Cn1cc(-c2cnc3c(nnn3C[C@@H]3CN(c4ncc(-c5ccc(CN6CCN(C(=O)CCCCNc7ccc8c(=O)n(C9CCC(=O)NC9=O)ncc8c7)CC6)cc5)cn4)CCO3)n2)cn1 (stereo partly drawn) [ICT-0000924, 3-(6-((5-(4-(4-(2-((S)-2-((5-(1-methyl-1H-pyrazole-4-yl)-1H-[1,2,3]triazolo[4,5-b]pyrazine-1-yl)methyl)morpholino)pyrimidine-5-yl)benzyl)piperazine-1-yl)5-oxopentyl)amino)1-oxopthalazine-2(1H)-yl)piperidine-2,6-dione] | < 100 | – | IC50 ([1]; Homo sapiens, SNU-638, 72 h): < 100 nM; DC50 ([3]; Table 1): < 100 nM
4 | Cn1cc(-c2cnc3c(nnn3C[C@@H]3CN(c4ncc(-c5ccc(CN6CCN(C(=O)CCCCCCNc7ccc8c(=O)n(C9CCC(=O)NC9=O)ncc8c7)CC6)cc5)cn4)CCO3)n2)cn1 (stereo partly drawn) [ICT-0000925, 3-(6-((7-(4-(4-(2-((S)-2-((5-(1-methyl-1H-pyrazole-4-yl)-1H-[1,2,3]triazolo[4,5-b]pyrazine-1-yl)methyl)morpholino)pyrimidine-5-yl)benzyl)piperazine-1-yl)7-oxoheptyl)amino)1-oxopthalazine-2(1H)-yl)piperidine-2,6-dione] | – | – | IC50 ([1]; SNU-638 cells, 72 hours, WST-8, Table 1): < 100 nM; IC50 ([2]; MKN-45 cells, 72 hours, WST-8, Table 1): < 100 nM; DC50 ([3]; Table 1): < 100 nM
5 | N#Cc1cccc(-c2ccc(=O)n(Cc3cccc(-c4ncc(OCC5CCN(C(=O)CN6CCN(c7ccc8c(=O)n(C9CCC(=O)NC9=O)ncc8c7)CC6)CC5)cn4)c3)n2)c1 (stereo not shown) [ICT-0000979, 3-(1-{[3-(5-{[1-(2-{4-[2-(2,6-dioxopiperidine-3-yl)-1-oxo-1,2-dihydrophthalazine-6-yl]piperazine-1-day}acetyl)piperidine-4-yl]methoxy}pyrimidine-2-yl)phenyl]methyl}-6-oxo-1,6-dihydropyridazine-3-yl)benzonitrile] | – | < 100 | IC50 ([1]; Homo sapiens, SNU-638, 72 h): 100 to 1000 nM; MKN-45 IC50 [2, 5]: A.; DC50 [4]: 100 to 1000 nM
6 | Cc1nn(C2CCC(=O)NC2=O)c(=O)c2ccc(N3CCN(CC4CN(C(=O)CN5CCC(COc6cnc(-c7cccc(Cn8nc(-c9cccc(C#N)c9)ccc8=O)c7)nc6)CC5)C4)CC3)cc12 (stereo not shown) [ICT-0001235] | < 100 | < 100 | –
7 | Cc1nn(C2CCC(=O)NC2=O)c(=O)c2ccc(N3CCC(CN4CCN(C(=O)CN5CCC(COc6cnc(-c7cccc(Cn8nc(-c9cccc(C#N)c9)ccc8=O)c7)nc6)CC5)CC4)CC3)cc12 (stereo not shown) [ICT-0001236] | < 100 | < 100 | –
8 | Cc1nn(C2CCC(=O)NC2=O)c(=O)c2ccc(N3CCN(C4CCN(C(=O)CN5CCC(COc6cnc(-c7cccc(Cn8nc(-c9cccc(C#N)c9)ccc8=O)c7)nc6)CC5)CC4)CC3)cc12 (stereo not shown) [ICT-0001237] | < 100 | < 100 | –
9 | Cc1nn(C2CCC(=O)NC2=O)c(=O)c2cc(N3CCC(CN4CCN(CC(=O)N5CCC(COc6cnc(-c7cccc(Cn8nc(-c9cccc(C#N)c9)ccc8=O)c7)nc6)CC5)CC4)CC3)ccc12 (stereo not shown) [ICT-0001239] | < 100 | < 100 | –
10 | Cc1nn(C2CCC(=O)NC2=O)c(=O)c2cc(N3CCN(C(=O)CCCCN4CCC(COc5cnc(-c6cccc(Cn7nc(-c8cccc(C#N)c8)ccc7=O)c6)nc5)CC4)CC3)ccc12 (stereo not shown) [ICT-0001251] | < 100 | < 100 | –
11 | N#Cc1cccc(-c2ccc(=O)n(Cc3cccc(-c4ncc(OCC5CCN(CCCCC(=O)N6CCN(c7ccc8c(=O)n(C9CCC(=O)NC9=O)ncc8c7)CC6)CC5)cn4)c3)n2)c1 (stereo not shown) [ICT-0001252] | < 100 | < 100 | –
12 | Cc1nn(C2CCC(=O)NC2=O)c(=O)c2ccc(N3CCN(CC4CN(CC(=O)N5CCC(COc6cnc(-c7cccc(Cn8nc(-c9cccc(C#N)c9)ccc8=O)c7)nc6)CC5)C4)CC3)cc12 (stereo not shown) [ICT-0001253] | < 100 | < 100 | –
13 | Cc1nn(C2CCC(=O)NC2=O)c(=O)c2ccc(N3CCN(C[C@H]4CCN(CC(=O)N5CCC(COc6cnc(-c7cccc(Cn8nc(-c9cccc(C#N)c9)ccc8=O)c7)nc6)CC5)CO4)CC3)cc12 (stereo partly shown) [ICT-0001254] | – | 100 to 1000 | IC50 [2, 5]: < 100 nM
14 | Cc1nn(C2CCC(=O)NC2=O)c(=O)c2ccc(N3CCN(C4CCN(CC(=O)N5CCC(COc6cnc(-c7cccc(Cn8nc(-c9cccc(C#N)c9)ccc8=O)c7)nc6)CC5)CC4)CC3)cc12 (stereo not shown) [ICT-0001255] | < 100 | < 100 | IC50 ([1]; Homo sapiens, SNU-638, 72 h): < 100 nM
15 | Cc1nn(C2CCC(=O)NC2=O)c(=O)c2ccc(N3CCN(C[C@@H]4CN(C(=O)CN5CCC(COc6cnc(-c7cccc(Cn8nc(-c9cccc(C#N)c9)ccc8=O)c7)nc6)CC5)CCO4)CC3)cc12 (stereo partly shown) [ICT-0001258] | < 100 | < 100 | –
16 | Cc1nn(C2CCC(=O)NC2=O)c(=O)c2cc(N3CCC(N4CCN(CC(=O)N5CCC(COc6cnc(-c7cccc(Cn8nc(-c9cccc(C#N)c9)ccc8=O)c7)nc6)CC5)CC4)CC3)ccc12 (stereo not shown) [ICT-0001270] | < 100 | < 100 | –
17 | Cc1nn(C2CCC(=O)NC2=O)c(=O)c2cc(N3CCO[C@H](CN4CCN(CC(=O)N5CCC(COc6cnc(-c7cccc(Cn8nc(-c9cccc(C#N)c9)ccc8=O)c7)nc6)CC5)CC4)C3)ccc12 (stereo partly drawn) [ICT-0001271, 3-(1-(3-(5-((1-(2-(4-(((2R)-4-(3-(2,6-dioxopiperidin-3-yl)-1-methyl-4-oxo-3,4-dihydrophthalazine-6-yl)morpholine-2-il)methyl)piperazine-1-il)acetyl)piperidine-4-il)methoxy)pyrimidine-2-yl)benzyl)6-oxo-1,6-dihydropyridazine-3-yl)benzonitrile] | – | < 100 | IC50 [2, 5]: < 100 nM
18 | Cc1nn(C2CCC(=O)NC2=O)c(=O)c2cc(F)c(N3CCN(CC4CCN(CC(=O)N5CCC(COc6cnc(-c7cccc(Cn8nc(-c9cccc(C#N)c9)ccc8=O)c7)nc6)CC5)CC4)CC3)cc12 (stereo not shown) [ICT-0001272] | < 100 | < 100 | –
19 | N#Cc1cccc(-c2ccc(=O)n(Cc3ccc(-c4ncc(OCC5CCN(CCCC#Cc6cccc7c(=O)n(C8CCC(=O)NC8=O)ncc67)CC5)cn4)cc3)n2)c1 (stereo not shown) [ICT-0001303] | – | – | IC50 [1, 6]: < 100 nM; DC50 [4]: 100 to 1000 nM
20 | N#Cc1cccc(-c2ccc(=O)n(Cc3cccc(-c4ncc(OCC5CCN(CCCC#Cc6ccc7c(=O)n(C8CCC(=O)NC8=O)ncc7c6)CC5)cn4)c3)n2)c1 (stereo not shown) [ICT-0001305] | – | – | IC50 [1, 6]: < 100 nM
21 | Cc1nn(C2CCC(=O)NC2=O)c(=O)c2ccc(N3CCN(C[C@@H]4CN(CCN5CCC(COc6cnc(-c7cccc(Cn8nc(-c9cccc(C#N)c9)ccc8=O)c7)nc6)CC5)CCO4)CC3)cc12 (stereo partly shown) [ICT-0001315] | – | – | IC50 [1, 6]: < 100 nM
22 | Cc1cc2c(=O)n(C3CCC(=O)NC3=O)nc(C)c2cc1N1CCN(CC2CCN(CCN3CCC(COc4cnc(-c5cccc(Cn6nc(-c7cccc(C#N)c7)ccc6=O)c5)nc4)CC3)CC2)CC1 (stereo not shown) [ICT-0001319] | – | – | IC50 [1, 6]: < 100 nM
23 | Cc1nn(C2CCC(=O)NC2=O)c(=O)c2ccc(N3CCN(C4CN(CCN5CCC(COc6cnc(-c7cccc(Cn8nc(-c9cccc(C#N)c9)ccc8=O)c7)nc6)CC5)C4)CC3)cc12 (stereo not shown) [ICT-0001325] | – | – | IC50 ([1]; Homo sapiens, SNU-638, 72 h): < 100 nM; DC50 [4]: > 1000 nM
24 | Cc1nn(C2CCC(=O)NC2=O)c(=O)c2cc(N3CCN(CC4CCN(CCN5CCC(COc6cnc(-c7cccc(Cn8nc(-c9cccc(C#N)c9)ccc8=O)c7)nc6)CC5)CC4)CC3)c(F)cc12 (stereo not shown) [ICT-0001326] | – | – | IC50 ([1]; Homo sapiens, SNU-638, 72 h): 100 to 1000 nM; DC50 [4]: > 1000 nM
